According to the supplement of paper PMC10307832:

Tests used:
Test in all cases: relative viability (nuclei count vs DMSO), 5 days (fraction); higher = more cells survive
VX-11e + Vorinostat = compound: CC1=CN=C(N=C1C2=CNC(=C2)C(=O)N[C@H](CO)C3=CC(=CC=C3)Cl)NC4=C(C=C(C=C4)F)Cl [VX-11e] + O=C(CCCCCCC(=O)Nc1ccccc1)NO [Vorinostat] (partner 1 µM)
Summary of the method: (§1)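 Relative viability is defined as nuclei in treated wells over nuclei in vehicle wells. Duplicate plates were run and medians reported. Lung cancer cell lines in 1536-well plates were dosed by pin tool one day after seeding, with one drug or with a fixed anchor-drug dose plus five library-drug doses (not always all listed) in √10 steps, and nuclei were counted after 5 days.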

VX-11e + Crizotinib = compound: CC1=CN=C(N=C1C2=CNC(=C2)C(=O)N[C@H](CO)C3=CC(=CC=C3)Cl)NC4=C(C=C(C=C4)F)Cl [VX-11e] + C[C@@H](Oc1cc(-c2cnn(C3CCNCC3)c2)cnc1N)c1c(Cl)ccc(F)c1Cl [Crizotinib] (partner 1 µM)
Summary of the method: as §1

VX-11e + Tozasertib = compound: CC1=CN=C(N=C1C2=CNC(=C2)C(=O)N[C@H](CO)C3=CC(=CC=C3)Cl)NC4=C(C=C(C=C4)F)Cl [VX-11e] + Cc1cc(Nc2cc(N3CCN(C)CC3)nc(Sc3ccc(NC(=O)C4CC4)cc3)n2)n[nH]1 [Tozasertib] (partner 0.1 µM)
Summary of the method: as §1

VX-11e + Navitoclax = compound: CC1=CN=C(N=C1C2=CNC(=C2)C(=O)N[C@H](CO)C3=CC(=CC=C3)Cl)NC4=C(C=C(C=C4)F)Cl [VX-11e] + CC1(C)CCC(c2ccc(Cl)cc2)=C(CN2CCN(c3ccc(C(=O)NS(=O)(=O)c4ccc(N[C@H](CCN5CCOCC5)CSc5ccccc5)c(S(=O)(=O)C(F)(F)F)c4)cc3)CC2)C1 [Navitoclax] (partner 0.5 µM)
Summary of the method: as §1

COR-L 105 was tested, and the relative viability (VX-11e + Vorinostat; first compound 0.04 µM) was 0.756, the relative viability (VX-11e + Vorinostat; first compound 0.1265 µM) was 0.857 and the relative viability (VX-11e + Vorinostat; first compound 0.4 µM) was 0.731. The relative viability (VX-11e + Vorinostat; first compound 1.265 µM) was 0.741, the relative viability (VX-11e + Vorinostat; first compound 4 µM) was 0.418 and the relative viability (VX-11e + Crizotinib; first compound 0.04 µM) was 0.779. It also gave a relative viability (VX-11e + Crizotinib; first compound 0.1265 µM) of 0.705, a relative viability (VX-11e + Crizotinib; first compound 0.4 µM) of 0.547 and a relative viability (VX-11e + Crizotinib; first compound 1.265 µM) of 0.369. It also gave a relative viability (VX-11e + Crizotinib; first compound 4 µM) of 0.292, a relative viability (VX-11e + Tozasertib; first compound 0.04 µM) of 0.341 and a relative viability (VX-11e + Tozasertib; first compound 0.1265 µM) of 0.342. The relative viability (VX-11e + Tozasertib; first compound 0.4 µM) was 0.367, the relative viability (VX-11e + Tozasertib; first compound 1.265 µM) was 0.721 and the relative viability (VX-11e + Tozasertib; first compound 4 µM) was 0.268. For the same cell line, the relative viability (VX-11e + Navitoclax; first compound 0.04 µM) was 0.591, the relative viability (VX-11e + Navitoclax; first compound 0.1265 µM) was 0.759 and the relative viability (VX-11e + Navitoclax; first compound 0.4 µM) was 0.55. For the same cell line, the relative viability (VX-11e + Navitoclax; first compound 1.265 µM) was 0.692 and the relative viability (VX-11e + Navitoclax; first compound 4 µM) was 0.284.

For H3255, the relative viability (VX-11e + Vorinostat; first compound 0.04 µM) was 0.828, the relative viability (VX-11e + Vorinostat; first compound 0.1265 µM) was 0.765 and the relative viability (VX-11e + Vorinostat; first compound 0.4 µM) was 0.776. For the same cell line, the relative viability (VX-11e + Vorinostat; first compound 1.265 µM) was 0.79, the relative viability (VX-11e + Vorinostat; first compound 4 µM) was 0.708 and the relative viability (VX-11e + Crizotinib; first compound 0.04 µM) was 0.898. It also gave a relative viability (VX-11e + Crizotinib; first compound 0.1265 µM) of 0.716, a relative viability (VX-11e + Crizotinib; first compound 0.4 µM) of 0.608 and a relative viability (VX-11e + Crizotinib; first compound 1.265 µM) of 0.877. For the same cell line, the relative viability (VX-11e + Crizotinib; first compound 4 µM) was 0.887, the relative viability (VX-11e + Tozasertib; first compound 0.04 µM) was 0.732 and the relative viability (VX-11e + Tozasertib; first compound 0.1265 µM) was 0.698. For the same cell line, the relative viability (VX-11e + Tozasertib; first compound 0.4 µM) was 0.562, the relative viability (VX-11e + Tozasertib; first compound 1.265 µM) was 0.595 and the relative viability (VX-11e + Tozasertib; first compound 4 µM) was 0.724. The relative viability (VX-11e + Navitoclax; first compound 0.04 µM) was 0.526, the relative viability (VX-11e + Navitoclax; first compound 0.1265 µM) was 0.451 and the relative viability (VX-11e + Navitoclax; first compound 0.4 µM) was 0.657. It also gave a relative viability (VX-11e + Navitoclax; first compound 1.265 µM) of 0.614 and a relative viability (VX-11e + Navitoclax; first compound 4 µM) of 0.496.

For LCLC-97TM1, the relative viability (VX-11e + Vorinostat; first compound 0.04 µM) was 0.765, the relative viability (VX-11e + Vorinostat; first compound 0.1265 µM) was 0.718 and the relative viability (VX-11e + Vorinostat; first compound 0.4 µM) was 0.758. For the same cell line, the relative viability (VX-11e + Vorinostat; first compound 4 µM) was 0.149, the relative viability (VX-11e + Crizotinib; first compound 0.04 µM) was 0.396 and the relative viability (VX-11e + Crizotinib; first compound 0.1265 µM) was 0.383. For the same cell line, the relative viability (VX-11e + Crizotinib; first compound 1.265 µM) was 0.324, the relative viability (VX-11e + Crizotinib; first compound 4 µM) was 0.182 and the relative viability (VX-11e + Tozasertib; first compound 0.04 µM) was 0.21. For the same cell line, the relative viability (VX-11e + Tozasertib; first compound 0.1265 µM) was 0.223, the relative viability (VX-11e + Tozasertib; first compound 0.4 µM) was 0.2 and the relative viability (VX-11e + Tozasertib; first compound 1.265 µM) was 0.166. The relative viability (VX-11e + Tozasertib; first compound 4 µM) was 0.179, the relative viability (VX-11e + Navitoclax; first compound 0.04 µM) was 0.492 and the relative viability (VX-11e + Navitoclax; first compound 0.1265 µM) was 0.463. The relative viability (VX-11e + Navitoclax; first compound 1.265 µM) was 0.408 and the relative viability (VX-11e + Navitoclax; first compound 4 µM) was 0.157.

Cell Line NCI-H441 has a relative viability (VX-11e + Vorinostat; first compound 0.04 µM) of 0.835, a relative viability (VX-11e + Vorinostat; first compound 0.1265 µM) of 0.786 and a relative viability (VX-11e + Vorinostat; first compound 1.265 µM) of 0.753. The relative viability (VX-11e + Vorinostat; first compound 4 µM) was 0.569, the relative viability (VX-11e + Crizotinib; first compound 0.04 µM) was 0.711 and the relative viability (VX-11e + Crizotinib; first compound 0.1265 µM) was 0.72. The relative viability (VX-11e + Crizotinib; first compound 1.265 µM) was 0.857, the relative viability (VX-11e + Crizotinib; first compound 4 µM) was 0.555 and the relative viability (VX-11e + Tozasertib; first compound 0.04 µM) was 0.753. The relative viability (VX-11e + Tozasertib; first compound 0.1265 µM) was 0.55, the relative viability (VX-11e + Tozasertib; first compound 1.265 µM) was 0.585 and the relative viability (VX-11e + Tozasertib; first compound 4 µM) was 0.453. For the same cell line, the relative viability (VX-11e + Navitoclax; first compound 0.04 µM) was 0.668, the relative viability (VX-11e + Navitoclax; first compound 0.1265 µM) was 0.469 and the relative viability (VX-11e + Navitoclax; first compound 1.265 µM) was 0.905. The relative viability (VX-11e + Navitoclax; first compound 4 µM) was 0.556.

Cell Line HCC-366 has a relative viability (VX-11e + Vorinostat; first compound 0.04 µM) of 0.314, a relative viability (VX-11e + Vorinostat; first compound 0.1265 µM) of 0.332 and a relative viability (VX-11e + Vorinostat; first compound 1.265 µM) of 0.105. The relative viability (VX-11e + Vorinostat; first compound 4 µM) was 0.199, the relative viability (VX-11e + Crizotinib; first compound 0.04 µM) was 0.605 and the relative viability (VX-11e + Crizotinib; first compound 0.1265 µM) was 0.476. The relative viability (VX-11e + Crizotinib; first compound 1.265 µM) was 0.561, the relative viability (VX-11e + Crizotinib; first compound 4 µM) was 0.184 and the relative viability (VX-11e + Tozasertib; first compound 0.04 µM) was 0.12. For the same cell line, the relative viability (VX-11e + Tozasertib; first compound 0.1265 µM) was 0.0759, the relative viability (VX-11e + Tozasertib; first compound 1.265 µM) was 0.0517 and the relative viability (VX-11e + Tozasertib; first compound 4 µM) was 0.0473. For the same cell line, the relative viability (VX-11e + Navitoclax; first compound 0.04 µM) was 1.22, the relative viability (VX-11e + Navitoclax; first compound 0.1265 µM) was 1.02 and the relative viability (VX-11e + Navitoclax; first compound 1.265 µM) was 0.993. The relative viability (VX-11e + Navitoclax; first compound 4 µM) was 0.708.
